According to ChEMBL document CHEMBL1201862, “PubChem BioAssay data set” (2004):
Where “and” joins values, the source holds several entries; their conditions need not be identical. Equal values may be shown once.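 Test compounds were applied to cells in 96-well plates for 48 hours at 5 doses. GI50: concentration for 50% inhibition of growth.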 Calls of active or inactive are those of the source. Rule as the data show it: active = GI50 up to about 1.1 µM and inactive = higher.

Key:
Test in all cases: NCI anticancer screen, dose series, 48 h
[1] = tested on: A498
[2] = tested on: A549
[3] = tested on: ACHN
[4] = tested on: CAKI-1
[5] = tested on: COLO 205
[6] = tested on: EKVX
[7] = tested on: HCC 2998
[8] = tested on: HCT-116
[9] = tested on: HCT-15
[10] = tested on: HOP-62
[11] = tested on: HOP-92
[12] = tested on: HT-29
[13] = tested on: Hs-578T
[14] = tested on: IGROV-1
[15] = tested on: LOX IMVI
[16] = tested on: MCF7
[17] = tested on: MDA-MB-231
[18] = tested on: MDA-N
[19] = tested on: MOLT-4
[20] = tested on: NCI-H226
[21] = tested on: NCI-H23
[22] = tested on: NCI-H460
[23] = tested on: NCI-H522
[24] = tested on: OVCAR-4
[25] = tested on: OVCAR-5
[26] = tested on: OVCAR-8
[27] = tested on: PC-3
[28] = tested on: RPMI-8226
[29] = tested on: RXF 393
[30] = tested on: SF-295
[31] = tested on: SF-539
[32] = tested on: SK-MEL-2
[33] = tested on: SK-MEL-5
[34] = tested on: SK-OV-3
[35] = tested on: SN12C
[36] = tested on: SNB-19
[37] = tested on: SNB-75
[38] = tested on: SR
[39] = tested on: SW-620
[40] = tested on: T47D
[41] = tested on: U-251
[42] = tested on: UACC-62
[43] = tested on: UO-31
[44] = tested on: CCRF-CEM
[45] = tested on: KM12
[46] = tested on: Malme-3M
[47] = tested on: NCI/ADR-RES
[48] = tested on: OVCAR-3
[49] = tested on: SK-MEL-28
[50] = tested on: TK-10
[51] = tested on: 786-0
[52] = tested on: DU-145
[53] = tested on: K562
[54] = tested on: M14
[55] = tested on: SF-268
[56] = tested on: UACC-257
[57] = tested on: HL-60
[58] = tested on: MDA-MB-435

SMILES: c1csc(C(NC2=NCCO2)C2CC2)c1 (configuration not stated)
- GI50 [1]: > 100 µM (inactive)
- GI50 [2]: > 100 µM (inactive)
- GI50 [3]: > 100 µM (inactive)
- GI50 [4]: > 100 µM (inactive)
- GI50 [5]: > 100 µM (inactive)
- GI50 [6]: > 100 µM (inactive)
- GI50 [7]: > 100 µM (inactive)
- GI50 [8]: > 100 µM (inactive)
- GI50 [9]: > 100 µM
- GI50 [10]: > 100 µM (inactive)
- GI50 [11]: 93.5 µM (inactive)
- GI50 [12]: 83.9 µM (inactive)
- GI50 [13]: > 100 µM (inactive)
- GI50 [14]: > 100 µM (inactive)
- GI50 [15]: > 100 µM (inactive)
- GI50 [16]: > 100 µM (inactive)
- GI50 [17]: > 100 µM (inactive)
- GI50 [18]: > 100 µM (inactive)
- GI50 [19]: > 100 µM (inactive)
- GI50 [20]: > 100 µM (inactive)
- GI50 [21]: > 100 µM (inactive)
- GI50 [22]: > 100 µM (inactive)
- GI50 [23]: > 100 µM (inactive)
- GI50 [24]: > 100 µM (inactive)
- GI50 [25]: > 100 µM (inactive)
- GI50 [26]: > 100 µM (inactive)
- GI50 [27]: > 100 µM (inactive)
- GI50 [28]: > 100 µM (inactive)
- GI50 [29]: > 100 µM (inactive)
- GI50 [30]: > 100 µM (inactive)
- GI50 [31]: > 100 µM (inactive)
- GI50 [32]: > 100 µM (inactive)
- GI50 [33]: > 100 µM (inactive)
- GI50 [34]: > 100 µM (inactive)
- GI50 [35]: > 100 µM (inactive)
- GI50 [36]: > 100 µM (inactive)
- GI50 [37]: > 100 µM (inactive)
- GI50 [38]: > 100 µM (inactive)
- GI50 [39]: > 100 µM (inactive)
- GI50 [40]: > 100 µM (inactive)
- GI50 [41]: > 100 µM (inactive)
- GI50 [42]: > 100 µM (inactive)
- GI50 [43]: > 100 µM (inactive)

SMILES: COc1ccc2c(c1)[n+]([O-])c1ccccc1[n+]2[O-]
- GI50 [2]: 11 µM (inactive) and 21.7 µM (inactive)
- GI50 [44]: 22.8 µM (inactive) and 17.9 µM (inactive)
- GI50 [5]: 33.2 µM (inactive) and 19.1 µM (inactive)
- GI50 [6]: 34 µM (inactive) and 17.5 µM (inactive)
- GI50 [7]: 29.1 µM (inactive)
- GI50 [8]: 31.5 µM (inactive) and 47.2 µM (inactive)
- GI50 [9]: 15.1 µM and 28.2 µM
- GI50 [10]: 29.1 µM (inactive) and 36.8 µM (inactive)
- GI50 [11]: 47.1 µM (inactive)
- GI50 [12]: 29.9 µM (inactive) and 51.5 µM (inactive)
- GI50 [14]: 5.9 µM (inactive)
- GI50 [45]: 40.5 µM (inactive) and 22.4 µM (inactive)
- GI50 [17]: 29.7 µM (inactive) and 37.7 µM (inactive)
- GI50 [18]: 73.8 µM (inactive)
- GI50 [46]: 38.7 µM (inactive) and 37.7 µM (inactive)
- GI50 [20]: 26.4 µM (inactive) and 27.2 µM (inactive)
- GI50 [21]: 24.7 µM (inactive) and 37.5 µM (inactive)
- GI50 [23]: 12.6 µM (inactive) and 14.6 µM (inactive)
- GI50 [47]: 29.9 µM (inactive) and 53.3 µM (inactive)
- GI50 [48]: 36.1 µM (inactive) and 44.8 µM (inactive)
- GI50 [24]: 25 µM (inactive)
- GI50 [25]: 38.7 µM (inactive) and 65.9 µM (inactive)
- GI50 [26]: 18.5 µM (inactive) and 17.2 µM (inactive)
- GI50 [28]: 20.3 µM (inactive) and 19.5 µM (inactive)
- GI50 [30]: 21.6 µM (inactive) and 39.8 µM (inactive)
- GI50 [49]: 78.7 µM (inactive)
- GI50 [32]: 26.9 µM (inactive) and 21.8 µM (inactive)
- GI50 [33]: 18.4 µM (inactive) and 24.1 µM (inactive)
- GI50 [34]: 24.7 µM (inactive)
- GI50 [35]: 28.6 µM (inactive) and 21 µM (inactive)
- GI50 [37]: 70.1 µM (inactive) and 35.2 µM (inactive)
- GI50 [39]: 24.7 µM (inactive) and 29.9 µM (inactive)
- GI50 [50]: 34.1 µM (inactive) and 31.5 µM (inactive)
- GI50 [41]: 22.6 µM (inactive) and 37.4 µM (inactive)
- GI50 [42]: 23.7 µM (inactive) and 18.5 µM (inactive)
- GI50 [43]: 10.3 µM (inactive) and 10.2 µM (inactive)

SMILES: CCOC(=O)C1=CC(C)(C(=O)OCC)Nc2c(nc(OC)[nH]c2=O)N1 (configuration not stated)
- GI50 [51]: > 10 µM (inactive)
- GI50 [1]: > 10 µM (inactive)
- GI50 [2]: > 10 µM (inactive)
- GI50 [3]: > 10 µM (inactive)
- GI50 [4]: > 10 µM (inactive)
- GI50 [44]: > 10 µM (inactive)
- GI50 [5]: > 10 µM (inactive)
- GI50 [52]: > 10 µM (inactive)
- GI50 [6]: > 10 µM (inactive)
- GI50 [7]: > 10 µM (inactive)
- GI50 [8]: > 10 µM (inactive)
- GI50 [9]: > 10 µM
- GI50 [10]: > 10 µM (inactive)
- GI50 [11]: > 10 µM (inactive)
- GI50 [12]: > 10 µM (inactive)
- GI50 [13]: > 10 µM (inactive)
- GI50 [14]: > 10 µM (inactive)
- GI50 [53]: > 10 µM (inactive)
- GI50 [45]: > 10 µM (inactive)
- GI50 [15]: > 10 µM (inactive)
- GI50 [54]: > 10 µM (inactive)
- GI50 [16]: > 10 µM (inactive)
- GI50 [17]: > 10 µM (inactive)
- GI50 [18]: > 10 µM (inactive)
- GI50 [19]: > 10 µM (inactive)
- GI50 [46]: > 10 µM (inactive)
- GI50 [20]: > 10 µM (inactive)
- GI50 [21]: > 10 µM (inactive)
- GI50 [22]: > 10 µM (inactive)
- GI50 [23]: > 10 µM (inactive)
- GI50 [47]: > 10 µM (inactive)
- GI50 [48]: > 10 µM (inactive)
- GI50 [24]: > 10 µM (inactive)
- GI50 [25]: > 10 µM (inactive)
- GI50 [26]: > 10 µM (inactive)
- GI50 [27]: > 10 µM (inactive)
- GI50 [28]: > 10 µM (inactive)
- GI50 [29]: > 10 µM (inactive)
- GI50 [55]: > 10 µM (inactive)
- GI50 [30]: > 10 µM (inactive)
- GI50 [31]: > 10 µM (inactive)
- GI50 [49]: > 10 µM (inactive)
- GI50 [32]: > 10 µM (inactive)
- GI50 [33]: > 10 µM (inactive)
- GI50 [34]: > 10 µM (inactive)
- GI50 [35]: > 10 µM (inactive)
- GI50 [36]: > 10 µM (inactive)
- GI50 [37]: > 10 µM (inactive)
- GI50 [39]: > 10 µM (inactive)
- GI50 [40]: > 10 µM (inactive)
- GI50 [50]: > 10 µM (inactive)
- GI50 [41]: > 10 µM (inactive)
- GI50 [56]: > 10 µM (inactive)
- GI50 [43]: > 10 µM (inactive)

SMILES: COc1cc(/C=C/C(=O)O)ccc1O [FERULATE]
- GI50 [51]: > 100 µM (inactive)
- GI50 [2]: > 100 µM (inactive)
- GI50 [3]: > 100 µM (inactive)
- GI50 [4]: > 100 µM (inactive)
- GI50 [44]: > 100 µM (inactive)
- GI50 [5]: > 100 µM (inactive)
- GI50 [52]: > 100 µM (inactive)
- GI50 [6]: > 100 µM (inactive)
- GI50 [7]: > 100 µM (inactive)
- GI50 [8]: > 100 µM (inactive)
- GI50 [9]: > 100 µM
- GI50 [57]: > 100 µM (inactive)
- GI50 [10]: > 100 µM (inactive)
- GI50 [11]: > 100 µM (inactive)
- GI50 [12]: > 100 µM (inactive)
- GI50 [13]: > 100 µM (inactive)
- GI50 [14]: > 100 µM (inactive)
- GI50 [53]: > 100 µM (inactive)
- GI50 [45]: > 100 µM (inactive)
- GI50 [15]: > 100 µM (inactive)
- GI50 [54]: > 100 µM (inactive)
- GI50 [16]: > 100 µM (inactive)
- GI50 [17]: > 100 µM (inactive)
- GI50 [58]: > 100 µM (inactive)
- GI50 [18]: > 100 µM (inactive)
- GI50 [19]: > 100 µM (inactive)
- GI50 [46]: > 100 µM (inactive)
- GI50 [20]: > 100 µM (inactive)
- GI50 [21]: > 100 µM (inactive)
- GI50 [22]: > 100 µM (inactive)
- GI50 [23]: > 100 µM (inactive)
- GI50 [47]: > 100 µM (inactive)
- GI50 [48]: > 100 µM (inactive)
- GI50 [24]: > 100 µM (inactive)
- GI50 [25]: > 100 µM (inactive)
- GI50 [26]: > 100 µM (inactive)
- GI50 [27]: > 100 µM (inactive)
- GI50 [28]: > 100 µM (inactive)
- GI50 [55]: > 100 µM (inactive)
- GI50 [30]: > 100 µM (inactive)
- GI50 [31]: > 100 µM (inactive)
- GI50 [49]: > 100 µM (inactive)
- GI50 [32]: > 100 µM (inactive)
- GI50 [33]: > 100 µM (inactive)
- GI50 [35]: > 100 µM (inactive)
- GI50 [36]: > 100 µM (inactive)
- GI50 [37]: > 100 µM (inactive)
- GI50 [38]: > 100 µM (inactive)
- GI50 [39]: > 100 µM (inactive)
- GI50 [40]: > 100 µM (inactive)
- GI50 [50]: > 100 µM (inactive)
- GI50 [41]: > 100 µM (inactive)
- GI50 [56]: > 100 µM (inactive)
- GI50 [43]: > 100 µM (inactive)
